US4579822A (priority 1983, dated 1986)

What was measured:
[1] = test system: DHAK (II); experiment: Substrate specificity of DHAK (II); format: biochemical, Schizosaccharomyces pombe IFO 0354; conditions: for Relative activity DHAK (II) (substrate): each substrate 1.0 mM, pH 7.5, 25° C., DHA = 100%
Description: (§1) The reaction mixture for measuring the substrate specificity of DHAK consists of 1.0 ml of 0.1M triethanolamine-HCl buffer (pH 7.5), 2.5 mM ATP, 4 mM MgSO4, 0.2 mM NADH, 1.3 mM phosphoenolpyruvate, 6 units of pyruvate kinase, 6 units of lactate dehydrogenase (Boehringer Mannheim GmbH), 0.01 ml of enzyme solution and each substrate (1.0 mM) as shown in Table 1. The reaction is started by adding enzyme solution and measured the decrease in the absorbance at 340 nm at 25° C. The above reaction is represented by the following equations: [drawing 4]

[2] = biological target: T1, DHAK (I) (Schizosaccharomyces pombe, UniProt O13902); experiment: Substrate specificity of DHAK (I); format: biochemical, Schizosaccharomyces pombe IFO 0354; conditions: pH 7.5; read-out: Relative activity DHAK (I) (substrate)
T1 construct: DHAK (I) and DHAK (II) obtained from Schizosaccharomyces pombe IFO 0354; made in house; host or cells: Schizosaccharomyces pombe IFO 0354 (natural producer, not recombinant); cell extract, DEAE-Sepharose fraction at 0.12 M KCl, then Blue-Sepharose
T1 sequence (O13902 1-580): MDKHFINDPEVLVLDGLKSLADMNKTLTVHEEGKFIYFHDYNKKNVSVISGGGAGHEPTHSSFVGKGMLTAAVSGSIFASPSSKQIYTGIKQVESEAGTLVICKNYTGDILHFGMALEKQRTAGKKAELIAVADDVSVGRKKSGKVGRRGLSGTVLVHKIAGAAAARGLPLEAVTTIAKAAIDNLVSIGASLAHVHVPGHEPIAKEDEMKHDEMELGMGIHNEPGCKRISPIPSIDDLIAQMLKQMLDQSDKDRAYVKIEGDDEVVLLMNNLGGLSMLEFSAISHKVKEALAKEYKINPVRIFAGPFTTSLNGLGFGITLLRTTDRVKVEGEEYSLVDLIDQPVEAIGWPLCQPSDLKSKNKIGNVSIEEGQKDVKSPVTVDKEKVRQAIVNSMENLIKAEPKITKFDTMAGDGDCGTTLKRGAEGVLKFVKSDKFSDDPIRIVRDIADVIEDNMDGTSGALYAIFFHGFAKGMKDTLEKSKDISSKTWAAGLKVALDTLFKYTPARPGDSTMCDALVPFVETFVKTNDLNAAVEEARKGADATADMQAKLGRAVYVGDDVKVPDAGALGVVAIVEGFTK
Description: as §1

[3] = biological target: T2, DHAK (II) (Schizosaccharomyces pombe, UniProt O74215); experiment: Specificity of DHAK (II) for phosphate donor; format: biochemical, Schizosaccharomyces pombe IFO 0354; conditions: Adenosine 5'-triphosphate = 100%
T2 construct: DHAK (I) and DHAK (II) obtained from Schizosaccharomyces pombe IFO 0354; made in house; host or cells: Schizosaccharomyces pombe IFO 0354 (natural producer, not recombinant); cell extract, DEAE-Sepharose fraction at 0.16 M KCl, then Blue-Sepharose
T2 sequence (O74215 1-591): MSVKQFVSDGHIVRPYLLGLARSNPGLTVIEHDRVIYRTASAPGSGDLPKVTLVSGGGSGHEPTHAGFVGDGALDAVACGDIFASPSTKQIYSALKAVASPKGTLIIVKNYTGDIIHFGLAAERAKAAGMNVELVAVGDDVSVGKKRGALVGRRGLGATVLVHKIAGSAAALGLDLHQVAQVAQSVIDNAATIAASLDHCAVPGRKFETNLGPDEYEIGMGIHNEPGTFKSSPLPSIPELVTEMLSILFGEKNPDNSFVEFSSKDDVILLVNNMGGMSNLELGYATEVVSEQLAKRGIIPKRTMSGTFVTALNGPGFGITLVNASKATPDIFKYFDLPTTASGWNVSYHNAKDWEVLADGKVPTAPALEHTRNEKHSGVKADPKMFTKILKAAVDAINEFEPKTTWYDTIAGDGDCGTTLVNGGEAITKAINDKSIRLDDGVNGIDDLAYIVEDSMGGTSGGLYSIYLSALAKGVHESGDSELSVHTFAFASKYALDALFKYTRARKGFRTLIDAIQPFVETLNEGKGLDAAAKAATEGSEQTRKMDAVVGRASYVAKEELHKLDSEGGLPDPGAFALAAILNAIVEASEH
Description: (§2) The reaction is started by adding enzyme solution, and the decrease of the absorbance at 340 nm is measured spectrophotometrically at 25° C. In the blank assay, DHA is excluded from the reaction mixture. One unit of the enzyme activity is defined as the amount of enzyme which catalyzes the formation of 1 μmol NAD^+ in one minute under the above conditions. The above reaction is represented by the following equations: [drawing 3]

[4] = biological target: T1, DHAK (I); experiment: Specificity of DHAK (I) for phosphate donor; format: biochemical, Schizosaccharomyces pombe IFO 0354; conditions: Adenosine 5'-triphosphate = 100%
Description: as §2

[5] = biological target: T2, DHAK (II); experiment: Specificity of DHAK (II) for divalent metal cations; format: biochemical, Schizosaccharomyces pombe IFO 0354; conditions: for Relative activity DHAK (II) (metal cation): each divalent metal cation 4 mM, MgSO4 = 100%
Description: as §2
(§3) Each divalent metal cation (4 mM) was added to the reaction mixture and the activity of the enzyme was measured.

[6] = biological target: T1, DHAK (I); experiment: Specificity of DHAK (I) for divalent metal cations; format: biochemical, Schizosaccharomyces pombe IFO 0354; conditions: for Relative activity DHAK (I) (metal cation): each divalent metal cation 4 mM, MgSO4 = 100%
Description: as §2, §3

[7] = substrate: O=C(CO)CO; experiment: purified protein, by the assay type; conditions: other: pH 7.5, 25° C.
[8] = substrate: O=CC(O)CO; experiment: Km values of DHAK (I) for substrates and coenzyme; format: biochemical, Schizosaccharomyces pombe IFO 0354; conditions: other: pH 7.5, 25° C.
[9] = substrate: Nc1ncnc2c1ncn2[C@@H]1O[C@H](COP(=O)(O)OP(=O)(O)OP(=O)(O)O)[C@@H](O)[C@H]1O; experiment: Km values of DHAK (I) for substrates and coenzyme; format: biochemical, Schizosaccharomyces pombe IFO 0354; conditions: other: pH 7.5, 25° C.
[10] = substrate: O=CC(O)CO; experiment: Km values of DHAK (II) for substrates and coenzyme; format: biochemical, Schizosaccharomyces pombe IFO 0354; conditions: other: pH 7.5, 25° C.
[11] = substrate: O=C(CO)CO; experiment: Km values of DHAK (II) for substrates and coenzyme; format: biochemical, Schizosaccharomyces pombe IFO 0354; conditions: other: pH 7.5, 25° C.
[12] = substrate: Nc1ncnc2c1ncn2[C@@H]1O[C@H](COP(=O)(O)OP(=O)(O)OP(=O)(O)O)[C@@H](O)[C@H]1O; experiment: Km values of DHAK (II) for substrates and coenzyme; format: biochemical, Schizosaccharomyces pombe IFO 0354; conditions: other: pH 7.5, 25° C.
[13] = concentration in the reaction mixture

With O=C(CO)CO [DHA, dihydroxyacetone] the “Relative activity DHAK (II) (substrate)” value [1] was 100%, the “Action of DHAK (II) on substrate (in words)” value ([1]; summary of Table 1) was “act on” and the activity at 1000 µM [2] was 100%.

For O=P(O)(O)OCC(O)CO (stereo not shown) [Glycerol-3-phosphate], the “Relative activity DHAK (II) (substrate)” value [1] was 0% and the activity at 1000 µM [2] was 0%.

OCC(O)CO [Glycerol] was tested, and the “Relative activity DHAK (II) (substrate)” value [1] was 0% and the activity at 1000 µM [2] was 0%.

For Nc1nc2c(ncn2[C@@H]2O[C@H](COP(=O)(O)OP(=O)(O)OP(=O)(O)O)[C@@H](O)[C@H]2O)c(=O)[nH]1 [Guanosine 5'-triphosphate], the “Relative activity DHAK (II) (phosphate donor)” value [3] was 0% and the “Relative activity DHAK (I) (phosphate donor)” value [4] was 0%.

O=P(O)(O)OP(=O)(O)OP(=O)(O)OC[C@H]1O[C@@H](n2cnc3c(O)ncnc32)[C@H](O)[C@@H]1O [Inosine 5'-triphosphate] was tested, and the “Relative activity DHAK (II) (phosphate donor)” value [3] was 0% and the “Relative activity DHAK (I) (phosphate donor)” value [4] was 0%.

O=S(=O)([O-])[O-].[Mg+2] [MgSO4] was tested, and the “Metal cation ranking for DHAK (II) (in words)” value ([5]; cation 4 mM, summary of Table 3) was “maximum activity”, the “Mg^2+ concentration giving sufficient activity of DHAK (II)” value [5, 13] was at least 4 mM and the “Relative activity DHAK (II) (metal cation)” value [5] was 100%. The “Mg^2+ concentration giving sufficient activity of DHAK (I)” value [6, 13] was at least 4 mM and the “Relative activity DHAK (I) (metal cation)” value [6] was 100%.

[Cl][Mn][Cl] [MnCl2] was tested, and the “Relative activity DHAK (II) (metal cation)” value [5] was 9% and the “Relative activity DHAK (I) (metal cation)” value [6] was 15%.

In the case of [Cl][Ni][Cl] [NiCl2], the “Relative activity DHAK (II) (metal cation)” value [5] is reported as 0% and the “Relative activity DHAK (I) (metal cation)” value [6] is reported as 0%.

O=c1ccn([C@@H]2O[C@H](COP(=O)(O)OP(=O)(O)OP(=O)(O)O)[C@@H](O)[C@H]2O)c(=O)[nH]1 [Uridine 5'-triphosphate] was tested, and the “Relative activity DHAK (II) (phosphate donor)” value [3] was 3.6% and the “Relative activity DHAK (I) (phosphate donor)” value [4] was 3.9%.

B1: DHAK (I) (Schizosaccharomyces pombe 972h-) (protein)
chain: MDKHFINDPEVLVLDGLKSLADMNKTLTVHEEGKFIYFHDYNKKNVSVISGGGAGHEPTHSSFVGKGMLTAAVSGSIFASPSSKQIYTGIKQVESEAGTLVICKNYTGDILHFGMALEKQRTAGKKAELIAVADDVSVGRKKSGKVGRRGLSGTVLVHKIAGAAAARGLPLEAVTTIAKAAIDNLVSIGASLAHVHVPGHEPIAKEDEMKHDEMELGMGIHNEPGCKRISPIPSIDDLIAQMLKQMLDQSDKDRAYVKIEGDDEVVLLMNNLGGLSMLEFSAISHKVKEALAKEYKINPVRIFAGPFTTSLNGLGFGITLLRTTDRVKVEGEEYSLVDLIDQPVEAIGWPLCQPSDLKSKNKIGNVSIEEGQKDVKSPVTVDKEKVRQAIVNSMENLIKAEPKITKFDTMAGDGDCGTTLKRGAEGVLKFVKSDKFSDDPIRIVRDIADVIEDNMDGTSGALYAIFFHGFAKGMKDTLEKSKDISSKTWAAGLKVALDTLFKYTPARPGDSTMCDALVPFVETFVKTNDLNAAVEEARKGADATADMQAKLGRAVYVGDDVKVPDAGALGVVAIVEGFTK
notes: DHAK (I) and DHAK (II) obtained from Schizosaccharomyces pombe IFO 0354; made in house; host or cells: Schizosaccharomyces pombe IFO 0354 (natural producer, not recombinant); cell extract, DEAE-Sepharose fraction at 0.12 M KCl, then Blue-Sepharose
B1 gave a Km [7] of 8.4 µM, a Km [8] of 21 µM and a Km [9] of 220 µM.

B2: DHAK (II) (Schizosaccharomyces pombe 972h-) (protein)
chain: MSVKQFVSDGHIVRPYLLGLARSNPGLTVIEHDRVIYRTASAPGSGDLPKVTLVSGGGSGHEPTHAGFVGDGALDAVACGDIFASPSTKQIYSALKAVASPKGTLIIVKNYTGDIIHFGLAAERAKAAGMNVELVAVGDDVSVGKKRGALVGRRGLGATVLVHKIAGSAAALGLDLHQVAQVAQSVIDNAATIAASLDHCAVPGRKFETNLGPDEYEIGMGIHNEPGTFKSSPLPSIPELVTEMLSILFGEKNPDNSFVEFSSKDDVILLVNNMGGMSNLELGYATEVVSEQLAKRGIIPKRTMSGTFVTALNGPGFGITLVNASKATPDIFKYFDLPTTASGWNVSYHNAKDWEVLADGKVPTAPALEHTRNEKHSGVKADPKMFTKILKAAVDAINEFEPKTTWYDTIAGDGDCGTTLVNGGEAITKAINDKSIRLDDGVNGIDDLAYIVEDSMGGTSGGLYSIYLSALAKGVHESGDSELSVHTFAFASKYALDALFKYTRARKGFRTLIDAIQPFVETLNEGKGLDAAAKAATEGSEQTRKMDAVVGRASYVAKEELHKLDSEGGLPDPGAFALAAILNAIVEASEH
notes: DHAK (I) and DHAK (II) obtained from Schizosaccharomyces pombe IFO 0354; made in house; host or cells: Schizosaccharomyces pombe IFO 0354 (natural producer, not recombinant); cell extract, DEAE-Sepharose fraction at 0.16 M KCl, then Blue-Sepharose
For B2, the Km [10] was 32 µM, the Km [11] was 20 µM and the Km [12] was 910 µM.
